Assay results reported in US20200369626A1 (Washington University, priority 2019, published 2020).
Where two headings read alike, the source gives them in different places.

Molecular target: T1, S1PR2 (Homo sapiens, UniProt O95136)
T1 construct: purchased
Experiment: competitive [^32P]S1P binding assay on cell membranes, S1PR2

[1] = [^32P]S1P competition, IC50 ± SD, Table 1 (2a-l, 4a-h), read-out: IC50 (binding potency toward S1PR2)
[2] = [^32P]S1P competition, read-out: IC50 value, S1PR2 binding
[3] = [^32P]S1P competition, IC50 ± SD, second Table 1, read-out: S2PR2 IC50

T1 sequence (O95136 whole entry): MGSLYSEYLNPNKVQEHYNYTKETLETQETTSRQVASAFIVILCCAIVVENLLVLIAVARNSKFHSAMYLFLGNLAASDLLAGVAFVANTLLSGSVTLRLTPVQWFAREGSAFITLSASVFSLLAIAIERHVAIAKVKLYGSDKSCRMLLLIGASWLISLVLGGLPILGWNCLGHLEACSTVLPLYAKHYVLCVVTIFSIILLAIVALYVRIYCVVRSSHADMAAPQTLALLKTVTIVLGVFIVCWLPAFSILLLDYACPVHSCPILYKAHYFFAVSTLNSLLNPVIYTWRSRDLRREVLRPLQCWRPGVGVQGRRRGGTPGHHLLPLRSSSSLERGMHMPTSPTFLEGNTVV
Experimental: The test compounds were dissolved in DMSO and diluted into test samples with increasing concentrations with assay buffer. Commercial cell membranes expressing recombinant human S1PR were diluted with assay buffer to make a 20-40 μg/mL of solution. […] The plate was incubated for 60 min at room temperature with shaking and terminated by collecting the membranes onto 96-well glass fiber (GF/B) filtration plates (Millipore, Billerica, Mass.). Each filter was washed with 200 μL of assay buffer for a total of five washes. […] The IC50 values were fitted from GraphPad Prism 6 using one site Nonlinear Regression.

## COc1cccc(NC(=O)Cn2c(=O)c3ccccc3n(CC(=O)Nc3cc(Cl)c(OC)cc3OC)c2=O)c1 [Compound 2b]
[1]
  IC50: 39.1 ± 7 nM

## COc1cc(OC)c(NC(=O)Cn2c(=O)n(CC(=O)Nc3ccc(O)cc3)c(=O)c3ccccc32)cc1Cl [Compound 2e]
[2]
  IC50: 2.6 ± 0.3 nM

## COc1cc(OC)c(NC(=O)Cn2c(=O)n(CC(=O)NCCc3cccnc3)c(=O)c3ccccc32)cc1Cl [Compound 2f]
[1]
  IC50: 58.7 ± 9 nM

## COc1cc(OC)c(NC(=O)Cn2c(=O)n(CC(=O)Nc3cc(Cl)nc(Cl)c3)c(=O)c3ccccc32)cc1Cl [Compound 2g]
[1]
  IC50: > 1000 nM

## COc1cc(OC)c(NC(=O)Cn2c(=O)n(CC(=O)NCCOCCO)c(=O)c3ccccc32)cc1Cl [Compound 2i]
[1]
  IC50: 91.4 ± 17.6 nM

## CNC(=O)Cn1c(=O)c2ccccc2n(CC(=O)Nc2cc(Cl)c(OC)cc2OC)c1=O [Compound 2k]
[1]
  IC50: 376 ± 91 nM

## COc1cc(OC)c(NC(=O)Cn2c(=O)n(CC(=O)N(C)C)c(=O)c3ccccc32)cc1Cl [Compound 2l]
[1]
  IC50: 175 ± 13 nM

## CCC(CC)CC1(O)CCN(C(=O)Nc2cc(OCCF)cc(Oc3ccc(F)cc3)c2)CC1 [Compound 11a, 4-(2-Ethylbutyl)-N-(3-(2-fluoroethoxy)-5-(4-fluorophenoxy)phenyl)-4-hydroxypiperidine-1-carboxamide]
[3]
  IC50: > 1000 nM
[2]
  IC50: > 1000 nM

## CCC(CC)CC1(O)CCN(C(=O)Nc2cc(OCCCF)cc(Oc3ccc(F)cc3)c2)CC1 [Compound 11b, 4-(2-Ethylbutyl)-N-(3-(4-fluorophenoxy)-5-(3-fluoropropoxy)phenyl)-4-hydroxypiperidine-1-carboxamide]
[3]
  IC50: > 1000 nM
[2]
  IC50: > 1000 nM

## CN1CCN(c2cc(Oc3ccc(F)cc3)cc([N+](=O)[O-])c2)CC1 [Compound 15a, 1-(3-(4-Fluorophenoxy)-5-nitrophenyl)-4-methylpiperazine]
[2]
  IC50: > 1000 nM

## O=[N+]([O-])c1cc(Oc2ccc(F)cc2)cc(-n2cccn2)c1 [Compound 15b, 1-(3-(4-Fluorophenoxy)-5-nitrophenyl)-1H-pyrazole]
[2]
  IC50: > 1000 nM

## CCC(CC)CC1(O)CCN(C(=O)Nc2cc(Oc3ccc(F)cc3)cc(N3CCN(C)CC3)c2)CC1 [Compound 17a, 4-(2-Ethylbutyl)-N-(3-(4-fluorophenoxy)-5-(4-methylpiperazin-1-yl)phenyl)-4-hydroxypiperidine-1-carboxamide]
[3]
  IC50: > 1000 nM

## CCC(CC)CC1(O)CCN(C(=O)Nc2cc(Oc3ccc(F)cc3)cc(-n3cccn3)c2)CC1 [Compound 17b, 4-(2-Ethylbutyl)-N-(3-(4-fluorophenoxy)-5-(1H-pyrazol-1-yl)phenyl)-4-hydroxypiperidine-1-carboxamide]
[3]
  IC50: > 1000 nM

## CCC(CC)CC1(O)CCN(C(=O)Nc2cc(Oc3ccc(C(=O)NC)cc3)cc(C(F)(F)F)c2)CC1 [Compound 21c, 4-(2-Ethylbutyl)-4-hydroxy-N-(3-(4-(methylcarbamoyl)-phenoxy)-5 (trifluoromethyl)phenyl)piperidine-1-carboxamide]
[3]
  IC50: 278 nM

## CCC(CC)CC1(O)CCN(C(=O)Nc2cc(Oc3ccc(S(C)(=O)=O)cc3)cc(C(F)(F)F)c2)CC1 [Compound 21f, 4-(2-Ethylbutyl)-4-hydroxy-N-(3-(4-(methylsulfonyl)phenoxy)-5-(trifluoromethyl)phenyl)piperidine-1-carboxamide]
[2]
  IC50: 270 nM

## CNC(=O)c1ccc(Oc2cc(NC(=O)N3CCC(C)(O)CC3)cc(C(F)(F)F)c2)cc1 [Compound 25a, 4-Hydroxy-4-methyl-N-(3-(4-(methylcarbamoyl)phenoxy)-5-(trifluoromethyl)phenyl)piperidine-1-carboxamide]
[3]
  IC50: > 1000 nM

## CC1(O)CCN(C(=O)Nc2cc(Oc3ccc(S(C)(=O)=O)cc3)cc(C(F)(F)F)c2)CC1 [Compound 25b, 4-Hydroxy-4-methyl-N-(3-(4-(methylsulfonyl)phenoxy)-5-(trifluoromethyl)phenyl)piperidine-1-carboxamide]
[3]
  IC50: > 1000 nM

## CCC1(O)CCN(C(=O)Nc2cc(Oc3ccc(C(=O)NC)cc3)cc(C(F)(F)F)c2)CC1 [Compound 25c, 4-Ethyl-4-hydroxy-N-(3-(4-(methylcarbamoyl)phenoxy)-5-(trifluoromethyl)phenyl)piperidine-1-carboxamide]
[3]
  IC50: > 1000 nM

## CCC1(O)CCN(C(=O)Nc2cc(Oc3ccc(S(C)(=O)=O)cc3)cc(C(F)(F)F)c2)CC1 [Compound 25d, 4-Ethyl-4-hydroxy-N-(3-(4-(methylsulfonyl)phenoxy)-5-(trifluoromethyl)phenyl)piperidine-1-carboxamide]
[3]
  IC50: > 1000 nM

## CNC(=O)c1ccc(Oc2cc(NC(=O)N3CCC(O)(C(C)C)CC3)cc(C(F)(F)F)c2)cc1 [Compound 25e, 4-Hydroxy-4-isopropyl-N-(3-(4-(methylcarbamoyl)phenoxy)-5-(trifluoromethyl)phenyl)piperidine-1-carboxamide]
[3]
  IC50: > 1000 nM

## CC(C)C1(O)CCN(C(=O)Nc2cc(Oc3ccc(S(C)(=O)=O)cc3)cc(C(F)(F)F)c2)CC1 [Compound 25f, 4-Hydroxy-4-isopropyl-N-(3-(4-(methylsulfonyl)phenoxy)-5-(trifluoromethyl)phenyl)piperidine-1-carboxamide]
[3]
  IC50: > 1000 nM

## CNC(=O)c1ccc(Oc2cc(NC(=O)N3CCC(O)(CC(C)C)CC3)cc(C(F)(F)F)c2)cc1 [Compound 25g, 4-Hydroxy-4-isobutyl-N-(3-(4-(methylcarbamoyl)phenoxy)-5-(trifluoromethyl)phenyl)piperidine-1-carboxamide]
[3]
  IC50: 359 nM

## CC(C)CC1(O)CCN(C(=O)Nc2cc(Oc3ccc(S(C)(=O)=O)cc3)cc(C(F)(F)F)c2)CC1 [Compound 25h, 4-Hydroxy-4-isobutyl-N-(3-(4-(methylsulfonyl)phenoxy)-5-(trifluoromethyl)phenyl)piperidine-1-carboxamide]
[3]
  IC50: 296 nM

## CNC(=O)c1ccc(Oc2cc(NC(=O)N3CC(O)(CC(C)C)C3)cc(C(F)(F)F)c2)cc1 [Compound 25i, 3-Hydroxy-3-isobutyl-N-(3-(4-(methylcarbamoyl)phenoxy)-5-(trifluoromethyl)phenyl)azetidine-1-carboxamide]
[3]
  IC50: > 1000 nM
[2]
  IC50: > 1000 nM

## CCC(CC)CC1(O)CCN(C(=O)Nc2cc(Oc3ccc(C(=O)NC)cc3)c3c(c2)oc2ccc(F)cc23)CC1 [TZ51-011]
Table 5, read-out: IC50 S1PR2
  IC50: 472 ± 244 nM

## CCC(CC)CC1(O)CCN(C(=O)Nc2cc(Oc3ccc(C(=O)NC)cc3)cc(C(F)(F)F)c2)CC1 [TZ51-018]
Table 5, read-out: IC50 S1PR2
  IC50: > 1000 nM

## CNC(=O)c1ccc(Oc2cc(NC(=O)N3CCOCC3)cc(C(F)(F)F)c2)cc1 [TZ51-019]
Table 5, read-out: IC50 S1PR2
  IC50: > 1000 nM

## CNC(=O)c1ccc(Oc2cc(NC(=O)N3CCC(=O)CC3)cc(C(F)(F)F)c2)cc1 [TZ51-020]
IC50 S1PR2, Table 5
  IC50: > 1000 nM

## CNC(=O)c1ccc(Oc2cc(NC(=O)N3CCC4(CC3)OCCO4)cc(C(F)(F)F)c2)cc1 [TZ51-022]
IC50 S1PR2, Table 5
  IC50: > 1000 nM

## CNC(=O)c1ccc(Oc2cc(NC(=O)N3CCC(O)CC3)cc(C(F)(F)F)c2)cc1 [TZ51-041]
Table 5, read-out: IC50 S1PR2
  IC50: > 1000 nM

## CNC(=O)c1ccc(Oc2cc(NC(=O)N3CCC(O)(C(C)C)CC3)cc(C(F)(F)F)c2)cc1 [TZ51-044]
Table 5, read-out: IC50 S1PR2
  IC50: > 1000 nM

## CC(C)C1(O)CCN(C(=O)Nc2cc(Oc3ccc(S(C)(=O)=O)cc3)cc(C(F)(F)F)c2)CC1 [TZ51-045]
Table 5, read-out: IC50 S1PR2
  IC50: > 1000 nM

## CCC1(O)CCN(C(=O)Nc2cc(Oc3ccc(C(=O)NC)cc3)cc(C(F)(F)F)c2)CC1 [TZ51-046]
Table 5, read-out: IC50 S1PR2
  IC50: > 1000 nM

## CCC1(O)CCN(C(=O)Nc2cc(Oc3ccc(S(C)(=O)=O)cc3)cc(C(F)(F)F)c2)CC1 [TZ51-047]
Table 5, read-out: IC50 S1PR2
  IC50: > 1000 nM

## CNC(=O)c1ccc(Oc2cc(NC(=O)N3CCC(C)(O)CC3)cc(C(F)(F)F)c2)cc1 [TZ51-057]
Table 5, read-out: IC50 S1PR2
  IC50: > 1000 nM

## CC1(O)CCN(C(=O)Nc2cc(Oc3ccc(S(C)(=O)=O)cc3)cc(C(F)(F)F)c2)CC1 [TZ51-058]
Table 5, read-out: IC50 S1PR2
  IC50: > 1000 nM

## COc1ccc(Oc2cc(NC(=O)N3CCC(O)(C(C)C)CC3)cc(C(F)(F)F)c2)cc1 [TZ51-059]
Table 5, read-out: IC50 S1PR2
  IC50: > 1000 nM

## CC(C)C1(O)CCN(C(=O)Nc2cc(Oc3ccncc3)cc(C(F)(F)F)c2)CC1 [TZ51-061]
Table 5, read-out: IC50 S1PR2
  IC50: > 1000 nM

## CC(C)CC1(O)CCN(C(=O)Nc2cc(Oc3ccc(C(=O)O)cc3)cc(C(F)(F)F)c2)CC1 [TZ51-073]
Table 5, read-out: IC50 S1PR2
  IC50: > 1000 nM

## CC(C)CC1(O)CCN(C(=O)Nc2cc(Oc3ccc(C(=O)N(C)C)cc3)cc(C(F)(F)F)c2)CC1 [TZ51-095]
Table 5, read-out: IC50 S1PR2
  IC50: > 1000 nM

## CC(C)CC1(O)CCN(C(=O)Nc2cc(Oc3ccc(C(N)=O)cc3)cc(C(F)(F)F)c2)CC1 [TZ51-096]
Table 5, read-out: IC50 S1PR2
  IC50: > 1000 nM

## CNC(=O)c1ccc(Oc2cc(NC(=O)N3CC(O)(CC(C)C)C3)cc(C(F)(F)F)c2)cc1 [TZ51-097]
Table 5, read-out: IC50 S1PR2
  IC50: > 1000 nM

## CNC(=O)c1ccc(Oc2cc(NC(=O)N3CCC(O)(CC(C)C)CC3)cc(C(F)(F)F)c2)cc1 [TZ51-108]
Table 5, read-out: IC50 S1PR2
  IC50: > 1000 nM

## CNC(=O)c1ccc(Oc2cc(NC(=O)N3CC(N4CCN(C)CC4)C3)cc(C(F)(F)F)c2)cc1 [TZ51-112]
Table 5, read-out: IC50 S1PR2
  IC50: > 1000 nM

## CNC(=O)c1ccc(Sc2cc(NC(=O)N3CCC(O)(CC(C)C)CC3)cc(C(F)(F)F)c2)cc1 [TZ51-121]
Table 5, read-out: IC50 S1PR2
  IC50: 421 ± 90 nM

## CCC(CC)CC1(O)CCN(C(=O)Nc2cc(OCCCF)cc(Oc3ccc(C(=O)NC)cc3)c2)CC1 [TZ51-133]
Table 5, read-out: IC50 S1PR2
  IC50: > 1000 nM

## CCC(CC)CC1(O)CCN(C(=O)Nc2cc(OCCCF)cc(Oc3ccc(F)cc3)c2)CC1 [TZ51-139]
Table 5, read-out: IC50 S1PR2
  IC50: > 1000 nM

## CCC(CC)CC1(O)CCN(C(=O)Nc2cc(OCCF)cc(Oc3ccc(F)cc3)c2)CC1 [TZ51-149]
Table 5, read-out: IC50 S1PR2
  IC50: > 1000 nM

## CCC(CC)CC1(O)CCN(C(=O)Nc2nc(Oc3ccc(F)cc3)nc(Oc3ccc(F)cc3)n2)CC1 [TZ51-150]
Table 5, read-out: IC50 S1PR2
  IC50: > 1000 nM

## CCC(CC)CC1(O)CCN(C(=O)Nc2nc(Oc3ccc(F)cc3)cc(Oc3ccc(F)cc3)n2)CC1 [TZ57-007]
Table 5, read-out: IC50 S1PR2
  IC50: > 1000 nM

## CCC(CC)CC1(O)CCN(C(=O)Nc2cc(Oc3ccc(F)cc3)cc(N3CCN(C)CC3)c2)CC1 [TZ57-013]
Table 5, read-out: IC50 S1PR2
  IC50: > 1000 nM

## CCC(CC)CC1(O)CCN(C(=O)Nc2cc(Oc3ccc(F)cc3)cc(-n3cccn3)c2)CC1 [TZ57-016]
Table 5, read-out: IC50 S1PR2
  IC50: > 1000 nM

## CC(C)CC1(O)CCN(C(=O)Nc2cc(Oc3ccc(S(C)(=O)=O)cc3)cc(Oc3ccc(F)nc3)c2)CC1 [TZ57-040]
Table 5, read-out: IC50 S1PR2
  IC50: 211 ± 32 nM

## CCC(CC)CC1(O)CCN(C(=O)Nc2cc(Oc3ccc(S(C)(=O)=O)cc3)cc(Oc3ccc(F)nc3)c2)CC1 [TZ57-041]
Table 5, read-out: IC50 S1PR2
  IC50: 198 ± 45 nM
